Laboratory results from US10624948B2, “Use of cell-permeable peptide inhibitors of the JNK signal transduction pathway for the treatment of various diseases” (Xigen Inflammation Ltd., priority 2013, dated 2020).
Where two headings read alike, the source gives them in different places.

What was measured:
db/db mice = conditions: mouse, in vivo, sc, 10 mg/kg
Excerpt: i) Animals • A total of twenty (20) male db/db mice (8 weeks old) were obtained from Charles River (Germany). Upon arrival, animals were group housed (n=6-7/group) and offered regular rodent chow (Altromin standard #1324 chow; C. Petersen, Ringsted, Denmark) and water ad libitum unless otherwise stated. The mice were housed under a 12:12 L/D cycle (lights on at 4:00 and lights off at 16:00) and in temperature and humidity controlled rooms.
ii) Groups and Randomization • On day −4, mice were randomized according to blood glucose level (fasted; blood glucose measured on Biosen S line analyzer (EKF diagnostic, Germany) to participate in one of the following drug treatment groups (n=6): • 1) Vehicle control, S.C. (physiological saline) • 2) XG-102 (SEQ ID NO: 11); 1 mg/kg; s.c. • 3) XG-102 (SEQ ID NO: 11); 10 mg/kg; s.c • All doses listed were calculated for the free-base. […] All compounds were administered sub-cutaneously (s.c.) in a volume of 3 ml/kg. The formulation instructions for vehicle control and XG-102 (SEQ ID NO: 11) were as follows: • First, XG-102 (SEQ ID NO: 11) was dissolved in the vehicle. […]
i) Blood Glucose • Blood glucose was measured from 7 hour fasted animals 6 hours post dosing by collection of 10 μl blood samples from the tail-vein in hematocrite tubes and subsequent analysis on a Biosen s-line analyzer (EKE-diagnostic; Germany).

[1] = test system: Primary cultured macrophages; type: cell-based
Procedure: FIG. 24 Primary cultured macrophages were incubated with XG-102 (SEQ ID NO: 11) and extensively washed.

[2] = test system: Sprague-Dawley albino rats, light-induced photoreceptor cell death; type: in vivo
Procedure: The aim of this study was to investigate the dose effect of XG-102 on light-induced photoreceptor cell death.
Test item (XG-102: 30 mg/ml, 3 mg/ml, and 0.3 mg/ml) and vehicle (0.9% NaCl) were administered by intravitreal injection in right eyes the day before induction. The reference (Phenyl-N-test-Butylnitrone (PBN) (50 mg/kg)) and vehicle were intraperitoneally injected 30 min before induction then, 3 times during 12 hours of light exposition, then once after induction. Animals were placed in constant light (7000 lux) for 24 h. Electroretinograms (ERG) were recorded before light treatment and on days 9, 16 and 23 after induction. Eyes were then taken for histology and outer nuclear layer (ONL) thickness assessment. The table below summarizes the allocation of animals in treatment groups:
For the intravitreal injection animals were anesthetized by intramuscular injection of a mixture of xylazine/ketamine. Test item (5 μl) and vehicle (5 μl) were injected in the right eye. The injection was performed under an operating microscope in the supratemporal area at pars plana using a 33G-needle mounted on a 50 μl Hamilton. The filled syringe was mounted into the UltraMicroPump III to achieve accurate injection in microliter range. Reference and vehicle were injected intraperitoneally at a dose volume of 2.5 ml/kg using a 30G-needle mounted on a 1 ml-syringe.
Light Exposure: The rats that had been dark-adapted overnight were exposed for 24 hours to a continuous white fluorescent light (7000 lx) in clear plastic cages. Each cage contained one rat. After exposure, the rats returned to rearing cyclic light conditions.
ERG was recorded before induction and 7, 14 and 21 days after cessation of exposure (Days 9, 16 and 23) on right eyes of dark-adapted and anesthezied animals. The latency times (for a- and b-wave) and the a-wave and b-wave amplitudes were measured for each ERG; the latency times were expressed as millisecond and the a-wave and b-wave as a percentage of the baseline value obtained before light exposure. 15 min before measurement 10 μl Mydriaticum® (0.5% tropicamide) were instilled for pupillary dilatation.
Measurement of the ONL Thickness: After ERG testing, animal was euthanized by an overdose of pentobarbital and the right eyes were enucleated, fixed and embedded in paraffin. Sections (5 μm thick) were performed along the vertical meridian and stained with Trichrome-Masson. The vertical meridian included the optic nerve.

[3] = test system: HCT 116 human colon tumor; test: Orthotopic HCT 116 human colon tumors in SCID mice; type: in vivo
Procedure: The objective of this study was to determine the effect of XG-102 on the growth of HCT 116 human colon tumor orthotopically xenografted in SCID mice.
For XG-102 administration the required amount of XG-102 was dissolved in the vehicle. The formulation was prepared according to the procedure detailed below. Concentrations were calculated and expressed taking into account test item purity and peptide content (multiplier coefficient was 74.6%). […] Diluted solutions were maintained on ice until use. Unused material was discarded. XG-102 was injected once daily at 0.1 and 1 mg/kg/inj. for a total of fourteen consecutive administrations (Q1D×14). The routes of substance administrations were: injected subcutaneously (SC) at 5 ml/kg/inj., administered per os (PO) to mice by oral gavage via a canula at 5 ml/kg/adm. The injection and administration volumes were adapted, according to the daily individual body weight of mice.
Twenty four to Forty-eight hours before tumor induction, 5 SCID mice were irradiated with a γ-source (1.8 Gy, Co^60, INRA, Dijon, France). Ten millions (10^7) HCT 116 cells suspended in 200 μl of RPMI medium were subcutaneously injected in the right flank of the 5 female SCJD mice. When tumors reached 1000-2000 mm^3, mice were sacrificed. […]
Mice were sacrificed at D26. […] Invasion of liver by tumor nodules was evaluated macroscopically. […]

Q: With `CC(C)C[C@@H](NC(=O)[C@@H](Cc1ccccc1)NC(=O)[C@H]1CCCN1C(=O)[C@@H](CCC(N)=O)NC(=O)[C@H](NC(=O)[C@H]1CCCN1C(=O)[C@@H](CCCNC(=N)N)NC(=O)[C@@H](CO)NC(=O)[C@@H](CCC(N)=O)NC(=O)[C@H](N)CC(=O)O)C(C)C)C(=O)N[C@H](CC(N)=O)C(=O)N[C@H](CC(C)C)C(=O)N[C@@H](C(=O)N[C@@H](C(=O)N1CCC[C@@H]1C(=O)N[C@H](CCCNC(=N)N)C(=O)N[C@H](CCCCN)C(=O)N1CCC[C@@H]1C(=O)N[C@H](CCCNC(=N)N)C(=O)N1CCC[C@@H]1C(=O)N1CCC[C@@H]1C(=O)N[C@H](CCCNC(=N)N)C(=O)N[C@H](CCCNC(=N)N)C(=O)N[C@H](CCCNC(=N)N)C(=O)N[C@H](CCC(N)=O)C(=O)N[C@H](CCCNC(=N)N)C(=O)N[C@H](CCCNC(=N)N)C(=O)N[C@H](CCCCN)C(=O)N[C@H](CCCCN)C(=O)N[C@H](CCCNC(=N)N)C(=O)NCC(=O)O)[C@H](C)O)[C@H](C)O` [XG-102] as the compound, how does the “reaction at s.c. injection site” value (db/db mice) read?
A: nodular fibrosis was observed in the subcutaneous tissue

Q: What about the “incorporation into primary macrophages” value [1] of the same compound?
A: strongly incorporated into primary macrophages

Q: What about the “ERG A-wave amplitude, percent of the baseline, Mean ± SD” value ([2]; XG-102 ivt 15 μg/eye, Day 23) of the same compound?
A: 41.8 ± 23.6%

Q: And the “ERG B-wave amplitude, percent of the baseline, Mean ± SD” value ([2]; XG-102 ivt 15 μg/eye, Day 23)?
A: 56.5 ± 29.8%

Q: And the “ERG A-wave amplitude, percent of the baseline, Mean ± SD” value ([2]; XG-102 ivt 150 μg/eye, Day 9)?
A: 23.6 ± 25.3%

Q: What about the “ERG B-wave amplitude, percent of the baseline, Mean ± SD” value ([2]; XG-102 ivt 150 μg/eye, Day 9) of the same compound?
A: 31.9 ± 42.6%

Q: And the “ERG A-wave amplitude, percent of the baseline, Mean ± SD” value ([2]; XG-102 ivt 150 μg/eye, Day 16)?
A: 24.1 ± 28.1%

Q: What about the “ERG B-wave amplitude, percent of the baseline, Mean ± SD” value ([2]; XG-102 ivt 150 μg/eye, Day 16) of the same compound?
A: 38.9 ± 51.5%

Q: And the “ERG A-wave amplitude, percent of the baseline, Mean ± SD” value ([2]; XG-102 ivt 150 μg/eye, Day 23)?
A: 23.7 ± 27.2%

Q: And the “ERG B-wave amplitude, percent of the baseline, Mean ± SD” value ([2]; XG-102 ivt 150 μg/eye, Day 23)?
A: 37.1 ± 54.4%

Q: What about the “MBWC at D−2” value ([3]; PO 0.1 mg/kg/adm.) of the same compound?
A: 7.1±4.6%

Q: What about the “lethality after surgery vs vehicle treated group” value ([3]; mouse, in vivo) of the same compound?
A: did not significantly modify lethality compared to vehicle treated group
